# Test results taken from patent publication US20220331435A1, “PROTAC SMALL MOLECULE COMPOUND AND USE THEREOF” (ZHUHAI YUFAN BIOTECHNOLOGIES CO., LTD, priority 2019, published 2022).
# Like-named read-outs stand apart in the source and are kept apart here.
# Assays:
# Type in all cases: cell-based
# [1] = biological target: T1, HPK1 (Homo sapiens, UniProt Q92918); assay: HPK1 degradation in Jurkat cells (Western blot); settings: compound 100 nM
# T1 construct: Jurkat cells were resuscitated, and then subjected to adherent culture for 12 h, compounds were added; endogenous in cells; host or cells: Jurkat cells
# [2] = biological target: T1, HPK1; assay: HPK1 degradation in Jurkat cells (Western blot); settings: for Degradation rate (12 h): 12 h (Table 2); for Degradation rate (10 nM) / Degradation rate (100 nM): HPK1, treatment time 12 h; for Degradation rate (10 nM): compound 10 nM; for HPK1 degradation rate at 0.1 µM: Jurkat, treatment time 6 h
# Experimental: (§1) S1: Jurkat cells were resuscitated, and then subjected to adherent culture for 12 h, compounds were added, the compound concentrations were fixed (treatment time was 0 h, 3 h, 6 h, 12 h, 24 h and 72 h) or the treatment time was fixed (compound concentrations were 0 nM, 1 nM, 10 nM, 100 nM and 1000 nM);
# (§2) S2: the culture solution was poured out, the cells were washed with 3 mL of PBS pre-cooled at 4° C., then the washing solution was discarded, an appropriate amount of lysis solution containing PMSF (100×) was added according to the cell amount, the mixture was uniformly mixed, then placed on ice for lysis for 30 min, and centrifuged at 12000 rpm and at 4° C. for 5 min, (a centrifuge was started for pre-cooling in advance), and the centrifuged supernatant was transferred into a new centrifuge tube and prepared for quantification;
# (§3) S3: an BCA quantitative reagent of Pierce™ BCA Protein Assay Kit (23225) was added at 200 uL/well, then 20 uL of BSA with known different concentrations was added to prepare a protein quantitative standard curve and a sample protein to be detected with avoiding generation of bubbles, the mixture was incubated for 30 min in the dark at 37° C., an OD value was measured at 562 nm, then an appropriate amount of SDS-PAGE loading buffer was added to the protein sample, and the reaction mixture was heated for 5 min in a boiling water bath to fully denature the protein, and stored at −20° C. for later use;
# (§4) S4: an SDS-PAGE gel was prepared, wherein the voltage of a concentrated gel was 90 V, and the voltage of a separation gel was 120 V, a membrane was transferred for 1 h at 4° C. and at a voltage of 100 V, after the membrane was transferred, the protein membrane was immediately placed in a prepared 5% BSA solution, and the mixture was slowly shaken on a shaker, and sealed for 1 h at room temperature;
# (§5) S5: the primary antibody was diluted according to an appropriate proportion according to the specifications of HPK1 Antibody (4472S CST), GLK (D1L4G) Rabbit mAb (92427S CST), SLP-76 (D1R1A) Rabbit mAb (70896S CST), Phospho-SLP-76 (Ser376) (D7S1K) XP® Rabbit mAb (92711T CST) and β-actin Mouse Monoclonal antibody (BE0021 easybio), then incubated overnight with slow shaking at 4° C., and washed 3 times with PBST for 10 min/time;
# (§6) S6: Goat Anti-Rabbit IgG (H&L)-HRP Conjugated (BE0101 easybio) or Goat Anti-Mouse IgG (H&L)-HRP Conjugated (BE0102 easybio) was selected according to the primary antibody, and the secondary antibody was diluted according to an appropriate proportion according to the specification of the secondary antibody, then incubated for 1 h at room temperature with slow shaking, and washed 3 times with PBST for 10 min/time; and
# (§7) S7: an ECL luminescence was added, the results were observed by a developing machine, Western results were quantified using Image J software, and the degradation rates (HPK1 and GLK) or inhibition rates (SLP76 Ser376 phosphorylation) were calculated by comparison with a control group to which no compounds were added, (degradation rate/inhibition rate=1−administration group/control group).
# [3] = biological target: T2, GLK (Homo sapiens, UniProt Q8IVH8); assay: GLK degradation in Jurkat cells (Western blot); settings: treatment time 6 h, compound 100 nM
# T2 construct: endogenous in cells; host or cells: Jurkat cells
# T2 sequence (Q8IVH8 1-894): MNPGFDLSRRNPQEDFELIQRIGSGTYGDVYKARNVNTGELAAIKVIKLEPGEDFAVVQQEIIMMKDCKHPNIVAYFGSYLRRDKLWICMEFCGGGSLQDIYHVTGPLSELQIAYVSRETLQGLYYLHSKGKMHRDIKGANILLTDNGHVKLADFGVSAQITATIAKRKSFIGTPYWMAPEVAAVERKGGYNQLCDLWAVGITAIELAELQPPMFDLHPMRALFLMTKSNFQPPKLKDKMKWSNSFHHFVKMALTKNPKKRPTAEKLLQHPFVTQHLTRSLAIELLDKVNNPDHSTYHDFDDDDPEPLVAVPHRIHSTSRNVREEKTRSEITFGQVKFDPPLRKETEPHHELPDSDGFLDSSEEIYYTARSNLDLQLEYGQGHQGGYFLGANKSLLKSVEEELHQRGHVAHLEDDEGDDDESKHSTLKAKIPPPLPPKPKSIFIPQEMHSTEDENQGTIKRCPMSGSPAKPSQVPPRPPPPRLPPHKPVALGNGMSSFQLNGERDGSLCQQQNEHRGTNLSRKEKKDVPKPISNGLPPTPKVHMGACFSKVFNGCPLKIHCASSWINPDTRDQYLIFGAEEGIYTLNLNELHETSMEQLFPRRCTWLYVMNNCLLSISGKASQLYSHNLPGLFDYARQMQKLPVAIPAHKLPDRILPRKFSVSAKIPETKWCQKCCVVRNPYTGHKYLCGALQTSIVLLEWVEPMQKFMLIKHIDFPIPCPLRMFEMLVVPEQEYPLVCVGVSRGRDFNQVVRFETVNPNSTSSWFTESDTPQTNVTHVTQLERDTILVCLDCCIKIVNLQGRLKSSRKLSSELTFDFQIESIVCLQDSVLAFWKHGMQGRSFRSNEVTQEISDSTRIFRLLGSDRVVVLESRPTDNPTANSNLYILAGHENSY
# Experimental: as §1, §2, §3, §4, §5, §6, §7
# [4] = test system: SLP76 Ser376 phosphorylation; assay: Inhibition of SLP76 Ser376 phosphorylation in Jurkat cells (Western blot); settings: Homo sapiens, compound 100 nM
# Experimental: as §1, §2, §3, §4, §5, §6, §7
# [5] = treatment time 6 h, read-out: SLP76 phosphorylation inhibition rate
# T1 sequence (Q92918 whole entry): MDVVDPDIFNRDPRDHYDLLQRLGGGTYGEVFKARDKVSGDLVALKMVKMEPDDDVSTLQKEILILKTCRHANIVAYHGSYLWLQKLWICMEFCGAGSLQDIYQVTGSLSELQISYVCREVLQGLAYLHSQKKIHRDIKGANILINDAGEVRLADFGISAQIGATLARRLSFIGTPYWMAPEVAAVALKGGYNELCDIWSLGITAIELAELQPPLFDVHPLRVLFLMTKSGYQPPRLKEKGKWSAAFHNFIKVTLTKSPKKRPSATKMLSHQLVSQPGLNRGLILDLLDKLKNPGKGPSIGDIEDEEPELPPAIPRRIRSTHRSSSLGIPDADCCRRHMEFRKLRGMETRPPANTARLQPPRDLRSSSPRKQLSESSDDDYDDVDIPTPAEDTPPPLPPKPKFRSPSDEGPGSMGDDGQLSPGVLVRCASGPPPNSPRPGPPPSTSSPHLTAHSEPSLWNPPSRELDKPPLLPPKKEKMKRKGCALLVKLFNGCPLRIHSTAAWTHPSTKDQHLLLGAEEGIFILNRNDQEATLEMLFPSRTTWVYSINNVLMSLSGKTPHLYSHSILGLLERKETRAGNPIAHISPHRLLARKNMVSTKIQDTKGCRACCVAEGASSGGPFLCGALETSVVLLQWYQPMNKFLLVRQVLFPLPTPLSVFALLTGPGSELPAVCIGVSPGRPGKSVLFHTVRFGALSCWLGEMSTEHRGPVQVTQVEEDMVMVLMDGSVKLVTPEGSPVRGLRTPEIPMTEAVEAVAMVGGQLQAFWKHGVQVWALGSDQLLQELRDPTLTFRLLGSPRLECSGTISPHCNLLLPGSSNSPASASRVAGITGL
Structure (SMILES),GLK degradation rate [3] [%],"HPK1 degradation rate at 0.1 µM ([2]; 6 h, compound 100 nM) [%]","inhibition at 0.1 µM [4, 5] [%]",other results
CC(C)(O)C#Cc1cccc(COc2cc(-c3cnc(C4CCN(C(=O)CCOCCOCCOCCOCCOc5cccc6c5C(=O)N(C5CCC(=O)NC5=O)C6=O)CC4)s3)cnc2N)c1 (centres unmarked) [Compound C7],–,–,–,"Degradation rate (48 h) [1]: −40%; Degradation rate (12 h) ([2]; HPK1, compound 100 nM): 58%; Degradation rate (24 h) ([2]; HPK1, compound 100 nM): 86%; Degradation rate (72 h) ([2]; HPK1, compound 100 nM, 72 h): −9%; Degradation rate (10 nM) [2]: 72%; Degradation rate (100 nM) ([2]; compound 100 nM): 68%"
CC(C)(O)C#Cc1cccc(COc2cc(-c3cnc(C4CCN(C(=O)CCNC(=O)CCCCCCOc5cccc6c5C(=O)N(C5CCC(=O)NC5=O)C6=O)CC4)s3)cnc2N)c1 (centres unmarked) [Compound C16],74,49,24,–
CC(C)(O)C#Cc1cccc(COc2cc(-c3cnc(C4CCN(C(=O)C5CCN(C(=O)CCCCCOc6cccc7c6C(=O)N(C6CCC(=O)NC6=O)C7=O)CC5)CC4)s3)cnc2N)c1 (centres unmarked) [Compound C18],71,39,34,–
CC(C)(O)C#Cc1cccc(COc2cc(-c3cnc(C4CCN(C(=O)CCNC(=O)CCCCCOc5cccc6c5C(=O)N(C5CCC(=O)NC5=O)C6=O)CC4)s3)cnc2N)c1 (centres unmarked) [Compound C15],38,-27,-7,–
CC(C)(O)C#Cc1cccc(COc2cc(-c3cnc(C4CCN(C(=O)C5CCN(C(=O)CCCCCCOc6cccc7c6C(=O)N(C6CCC(=O)NC6=O)C7=O)CC5)CC4)s3)cnc2N)c1 (centres unmarked) [Compound C19],–,–,3,–
CC(C)(O)C#Cc1cccc(COc2cc(-c3cnc(C4CCN(C(=O)CCCCCCCOc5cccc6c5C(=O)N(C5CCC(=O)NC5=O)C6=O)CC4)s3)cnc2N)c1 (centres unmarked) [Compound C1],–,–,–,Degradation rate (10 nM) [2]: 47%; Degradation rate (100 nM) ([2]; compound 100 nM): 68%
CC(C)(O)C#Cc1cccc(COc2cc(-c3cnc(C4CCN(C(=O)CCCCCCCCCOc5cccc6c5C(=O)N(C5CCC(=O)NC5=O)C6=O)CC4)s3)cnc2N)c1 (centres unmarked) [Compound C3],–,–,–,"Degradation rate (48 h) [1]: 11%; Degradation rate (3 h) ([2]; HPK1, compound 100 nM, 3 h): 54%; Degradation rate (6 h) ([2]; HPK1, compound 100 nM, 6 h): 52%; Degradation rate (12 h) ([2]; HPK1, compound 100 nM): 58%; Degradation rate (24 h) ([2]; HPK1, compound 100 nM): 3%; Degradation rate (10 nM) [2]: 15%; Degradation rate (100 nM) ([2]; compound 100 nM): 75%; Dmax at 0.1 µM ([2]; compound 100 nM, maximum over different time points, read-out: Maximum degradation rate of HPK1): 62%; inhibition at 0.1 µM ([4]; maximum over different time points, read-out: Maximum inhibition rate of SLP76 Ser376 phosphorylation): 81%"
CN1C(=O)CCC(N2C(=O)c3cccc(OCCCCCCCC(=O)N4CCC(c5ncc(-c6cnc(N)c(OCc7cccc(C#CC(C)(C)O)c7)c6)s5)CC4)c3C2=O)C1=O (centres unmarked) [Compound C2],–,–,–,Degradation rate (10 nM) [2]: 39%; Degradation rate (100 nM) ([2]; compound 100 nM): 33%
CC(C)(O)C#Cc1cccc(COc2cc(-c3cnc(C4CCN(C(=O)C5CCN(C(=O)CCCCOc6cccc7c6C(=O)N(C6CCC(=O)NC6=O)C7=O)CC5)CC4)s3)cnc2N)c1 (centres unmarked) [Compound C17],42,-7,22,–

# The next lines start with results.
GLK degradation rate [3] [%],"HPK1 degradation rate at 0.1 µM ([2]; 6 h, compound 100 nM) [%]",Structure (SMILES),"inhibition at 0.1 µM [4, 5] [%]",other results
−34,46,CC(C)(O)C#Cc1cccc(COc2cc(-c3cnc(C4CCN(C(=O)CCOCCCCCCOc5cccc6c5C(=O)N(C5CCC(=O)NC5=O)C6=O)CC4)s3)cnc2N)c1 (centres unmarked) [Compound C9],61,–
43,38,CC(C)(O)C#Cc1cccc(COc2cc(-c3cnc(C4CCN(C(=O)CCNC(=O)CCCOc5cccc6c5C(=O)N(C5CCC(=O)NC5=O)C6=O)CC4)s3)cnc2N)c1 (centres unmarked) [Compound C13],4,–
34,66,CC(C)(O)C#Cc1cccc(COc2cc(-c3cnc(C4CCN(C(=O)CCOCCCCCOc5cccc6c5C(=O)N(C5CCC(=O)NC5=O)C6=O)CC4)s3)cnc2N)c1 (centres unmarked) [Compound C8],51,–
15,-15,CC(C)(O)C#Cc1cccc(COc2cc(-c3cnc(C4CCN(C(=O)Cn5cc(COCCOc6cccc7c6C(=O)N(C6CCC(=O)NC6=O)C7=O)nn5)CC4)s3)cnc2N)c1 (centres unmarked) [Compound C20],7,"HPK1 degradation rate (12 h) ([2]; 12 h (in-cell remark of Table 4), compound 100 nM): 41%"
60,58,CC(C)(O)C#Cc1cccc(COc2cc(-c3cnc(C4CCN(C(=O)CCNC(=O)CCCCOc5cccc6c5C(=O)N(C5CCC(=O)NC5=O)C6=O)CC4)s3)cnc2N)c1 (centres unmarked) [Compound C14],26,–
−36,30,CC(C)(O)C#Cc1cccc(COc2cc(-c3cnc(C4CCN(C(=O)CCOCCCCCCCCOc5cccc6c5C(=O)N(C5CCC(=O)NC5=O)C6=O)CC4)s3)cnc2N)c1 (centres unmarked) [Compound C11],–,–
